Data: patent US20230085307A1, “PYRIDAZINONE COMPOUND AND HERBICIDE” (NISSAN CHEMICAL CORPORATION, priority 2019, published 2023)

Assays:
late watergrass [1] = experiment: Test Example 1: herbicidal activity, application before weed generation under submerged conditions (Table 16, symbol A); format: in vivo, late watergrass (Echinochloa oryzicola); conditions: amount of applied herbicide 320 g/ha
Method in brief: (§1)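 Alluvial soil was flooded to 4 cm depth, weed seeds were sown mixed and 2.5-leaf rice seedlings were transplanted. On sowing day, the compound's emulsion, diluted in water to a set dose, was applied to the water surface. Plants grew at 25–30 °C and were scored 0–5 after three weeks.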

southern crabgrass [2] = experiment: Test Example 5: herbicidal effect by foliage application, plastic box (Table 20, symbol F); format: in vivo, southern crabgrass (Digitaria ciliaris); conditions: 320 g/ha; for herbicidal effect on F: southern crabgrass (evaluation grade 0-5): foliage application after 14-day growth, evaluated three weeks after application
Method in brief: (§2)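 Plants were sown into sterilized diluvial soil under about 1.5 cm cover and kept in a greenhouse at 25° C. to 30° C. Fourteen days on, foliage received an even spray of the diluted emulsion. Herbicidal or crop effect was judged three weeks afterwards.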

Japanese bulrush = experiment: Test Example 1: herbicidal activity, application before weed generation under submerged conditions (Table 16, symbol B); format: in vivo, Japanese bulrush (Schoenoplectus juncoides); conditions: amount of applied herbicide 320 g/ha
Method in brief: as §1

wild oat = experiment: Test Example 5: herbicidal effect by foliage application, plastic box (Table 20, symbol I); format: in vivo, wild oat (Avena fatua); conditions: 320 g/ha; for herbicidal effect on I: wild oat (evaluation grade 0-5): foliage application after 14-day growth, evaluated three weeks after application
Method in brief: as §2

southern crabgrass [3] = experiment: Test Example 4: herbicidal effect by soil treatment (Table 19, symbol F); format: in vivo, southern crabgrass (Digitaria ciliaris); conditions: amount of applied herbicide 320 g/ha
Method in brief: (§3)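 Pre-emergence style soil spray: seeds under ~1.5 cm sterilized diluvial soil received a uniform coat of emulsion diluted to the predetermined herbicide amount. Greenhouse 25–30° C; readout at week three on previously defined criteria.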

lambsquarters = experiment: Test Example 5: herbicidal effect by foliage application, plastic box (Table 20, symbol O); format: in vivo, lambsquarters (Chenopodium album); conditions: 320 g/ha; for herbicidal effect on O: lambsquarters (evaluation grade 0-5): foliage application after 14-day growth, evaluated three weeks after application
Method in brief: as §2

redroot pigweed = experiment: Test Example 5: herbicidal effect by foliage application, plastic box (Table 20, symbol N); format: in vivo, redroot pigweed (Amaranthus retroflexus); conditions: 320 g/ha; for herbicidal effect on N: redroot pigweed (evaluation grade 0-5): foliage application after 14-day growth, evaluated three weeks after application
Method in brief: as §2

blackgrass = experiment: Test Example 4: herbicidal effect by soil treatment (Table 19, symbol J); format: in vivo, blackgrass (Alopecurus myosuroides); conditions: amount of applied herbicide 320 g/ha
Method in brief: as §3

green foxtail = experiment: Test Example 5: herbicidal effect by foliage application, plastic box (Table 20, symbol G); format: in vivo, green foxtail (Setaria viridis); conditions: 320 g/ha; for herbicidal effect on G: green foxtail (evaluation grade 0-5): foliage application after 14-day growth, evaluated three weeks after application
Method in brief: as §2

windgrass = experiment: Test Example 5: herbicidal effect by foliage application, plastic box (Table 20, symbol L); format: in vivo, windgrass (Apera spica-venti); conditions: foliage application, 320 g/ha, three weeks after application
Method in brief: as §2

barnyard grass [4] = experiment: Test Example 4: herbicidal effect by soil treatment (Table 19, symbol H); format: in vivo, barnyard grass (Echinochloa crus-galli); conditions: amount of applied herbicide 320 g/ha
Method in brief: as §3

persian speedwell = experiment: Test Example 5: herbicidal effect by foliage application, plastic box (Table 20, symbol R); format: in vivo, Persian speedwell (Veronica persica); conditions: 320 g/ha; for herbicidal effect on R: persian speedwell (evaluation grade 0-5): foliage application after 14-day growth, evaluated three weeks after application
Method in brief: as §2

chickweed = experiment: Test Example 4: herbicidal effect by soil treatment (Table 19, symbol P); format: in vivo, common chickweed (Stellaria media); conditions: amount of applied herbicide 320 g/ha
Method in brief: as §3

late watergrass [5] = experiment: Test Example 2: herbicidal activity, application during weed generation under submerged conditions (Table 17, symbol A); format: in vivo, late watergrass (Echinochloa oryzicola); conditions: AAH 320 g/ha; application during weed generation, submerged conditions
Method in brief: (§4)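 Wagner pot, alluvial soil, 4 cm flood; mixed sowing of all species; greenhouse 25° C.–30° C. Emulsifiable formulation, water-diluted to predetermined dose, applied to paddy water at 1–2 leaf stage. Effect rated at 3 wk using the earlier test's scoring criteria.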

oval-leafed pondweed = experiment: Test Example 2: herbicidal activity, application during weed generation under submerged conditions (Table 17, symbol C); format: in vivo, oval-leafed pondweed (Monochoria vaginalis); conditions: AAH 320 g/ha; application during weed generation, submerged conditions
Method in brief: as §4

barnyard grass [6] = experiment: Test Example 3: herbicidal effect by foliage application, Wagner pot (Table 18, symbol H); format: in vivo, barnyard grass (Echinochloa crus-galli); conditions: for herbicidal effect on barnyard grass (H): 320 g/ha
Method in brief: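 Plants were sown in alluvial soil held under 0.1–0.5 cm standing water and grown 14 days in a greenhouse at 25–30 °C. An emulsifiable formulation, water-diluted to the set dose, was then sprayed onto the foliage, and effects were scored three weeks later using previously defined criteria.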

[7] = foliage application, three weeks after application
[8] = amount of applied herbicide 320 g/ha

SMILES	Herbicidal effect, A: late watergrass (late watergrass [1])	Herbicidal effect, B: Japanese bulrush (Japanese bulrush)	herbicidal effect rating, A: late watergrass (late watergrass [5])	herbicidal effect rating, C: oval-leafed pondweed (oval-leafed pondweed)	herbicidal effect on F: southern crabgrass (evaluation grade 0-5) (southern crabgrass [2])	herbicidal effect on I: wild oat (evaluation grade 0-5) (wild oat)	Herbicidal effect by soil treatment, F: southern crabgrass (southern crabgrass [3])	herbicidal effect on O: lambsquarters (evaluation grade 0-5) (lambsquarters)	herbicidal effect on N: redroot pigweed (evaluation grade 0-5) (redroot pigweed)	Herbicidal effect by soil treatment, J: blackgrass (blackgrass)	herbicidal effect on G: green foxtail (evaluation grade 0-5) (green foxtail)	Herbicidal effect by soil treatment, H: barnyard grass (barnyard grass [4])	herbicidal effect on R: persian speedwell (evaluation grade 0-5) (persian speedwell)	Herbicidal effect by soil treatment, P: chickweed (chickweed)	herbicidal effect on barnyard grass (H) (barnyard grass [6])	herbicidal effect on southern crabgrass (F) (southern crabgrass [2]; [7])	herbicidal effect on wild oat (I) (wild oat; [7])	F: southern crabgrass, herbicidal effect grade (southern crabgrass [3])	herbicidal effect on lambsquarters (O) (lambsquarters; [7])	J: blackgrass, herbicidal effect grade (blackgrass)	also measured
COc1ccccc1-c1sc2cc(F)ccc2c1-c1c(OC(=O)c2ccco2)c(C)nn(C)c1=O [3-023]	3 (Herbicidal rate of 40% or more and less than 70%)	3 (Herbicidal rate of 40% or more and less than 70%)	2 (Herbicidal rate of 20% or more and less than 40%)	4 (Herbicidal rate of 70% or more and less than 90%)																	F: southern crabgrass, herbicidal effect grade (southern crabgrass [2]; [7]): 3 (Herbicidal rate of 40% or more and less than 70%); I: wild oat, herbicidal effect grade (wild oat; [7]): 4 (Herbicidal rate of 70% or more and less than 90%); herbicidal effect, F: southern crabgrass (southern crabgrass [3]): 3 (Herbicidal rate of 40% or more and less than 70%); O: lambsquarters, herbicidal effect grade (lambsquarters; [7]): 3 (Herbicidal rate of 40% or more and less than 70%); N: redroot pigweed, herbicidal effect grade (redroot pigweed; [7]): 5 (Herbicidal rate of 90% or more (almost completely withered)); herbicidal effect, J: blackgrass (blackgrass): 4 (Herbicidal rate of 70% or more and less than 90%); G: green foxtail, herbicidal effect grade (green foxtail; [7]): 5 (Herbicidal rate of 90% or more (almost completely withered)); L: windgrass, herbicidal effect grade (windgrass): 5 (Herbicidal rate of 90% or more (almost completely withered)); herbicidal effect, H: barnyard grass (barnyard grass [4]): 4 (Herbicidal rate of 70% or more and less than 90%); R: persian speedwell, herbicidal effect grade (persian speedwell; [7]): 3 (Herbicidal rate of 40% or more and less than 70%); herbicidal effect, P: chickweed (chickweed): 4 (Herbicidal rate of 70% or more and less than 90%); herbicidal effect on H: barnyard grass (barnyard grass [6]; [8]): 5 (Herbicidal rate of 90% or more (almost completely withered))
C=C(C)C(=O)Oc1c(C)nn(C)c(=O)c1-c1c(-c2ccccc2OC)sc2cc(OC)ccc12 [3-155]	5 (Herbicidal rate of 90% or more (almost completely withered))	5 (Herbicidal rate of 90% or more (almost completely withered))	5 (Herbicidal rate of 90% or more (almost completely withered))	5 (Herbicidal rate of 90% or more (almost completely withered))	5 (Herbicidal rate of 90% or more (almost completely withered))	3 (Herbicidal rate of 40% or more and less than 70%)	0 (Herbicidal rate of 5% or less (almost no effect))	4 (Herbicidal rate of 70% or more and less than 90%)	5 (Herbicidal rate of 90% or more (almost completely withered))	4 (Herbicidal rate of 70% or more and less than 90%)	5 (Herbicidal rate of 90% or more (almost completely withered))	2 (Herbicidal rate of 20% or more and less than 40%)	5 (Herbicidal rate of 90% or more (almost completely withered))	1 (Herbicidal rate of 5% or more and less than 20%)	5 (Herbicidal rate of 90% or more (almost completely withered))						
CCCC(=O)Oc1c(C)nn(C)c(=O)c1-c1c(-c2ccc(OC)cc2)sc2c(F)cccc12 [4-006]	3 (Herbicidal rate of 40% or more and less than 70%)	3 (Herbicidal rate of 40% or more and less than 70%)	3 (Herbicidal rate of 40% or more and less than 70%)	2 (Herbicidal rate of 20% or more and less than 40%)	1 (Herbicidal rate of 5% or more and less than 20%)	0 (Herbicidal rate of 5% or less (almost no effect))	0 (Herbicidal rate of 5% or less (almost no effect))	3 (Herbicidal rate of 40% or more and less than 70%)	5 (Herbicidal rate of 90% or more (almost completely withered))	0 (Herbicidal rate of 5% or less (almost no effect))	4 (Herbicidal rate of 70% or more and less than 90%)	4 (Herbicidal rate of 70% or more and less than 90%)	3 (Herbicidal rate of 40% or more and less than 70%)	0 (Herbicidal rate of 5% or less (almost no effect))	5 (Herbicidal rate of 90% or more (almost completely withered))						
COc1ccc(-c2oc3ccc(C)cc3c2-c2c(O)c(C)nn(C)c2=O)cc1 [9-007]	5 (Herbicidal rate of 90% or more (almost completely withered))	5 (Herbicidal rate of 90% or more (almost completely withered))	4 (Herbicidal rate of 70% or more and less than 90%)	5 (Herbicidal rate of 90% or more (almost completely withered))												5 (Herbicidal rate of 90% or more (almost completely withered))	4 (Herbicidal rate of 70% or more and less than 90%)	5 (Herbicidal rate of 90% or more (almost completely withered))	5 (Herbicidal rate of 90% or more (almost completely withered))	4 (Herbicidal rate of 70% or more and less than 90%)	herbicidal effect on green foxtail (G) (green foxtail; [7]): 4 (Herbicidal rate of 70% or more and less than 90%); herbicidal effect on windgrass (L) (windgrass): 4 (Herbicidal rate of 70% or more and less than 90%); H: barnyard grass, herbicidal effect grade (barnyard grass [4]): 3 (Herbicidal rate of 40% or more and less than 70%); herbicidal effect on persian speedwell (R) (persian speedwell; [7]): 5 (Herbicidal rate of 90% or more (almost completely withered)); P: chickweed, herbicidal effect grade (chickweed): 4 (Herbicidal rate of 70% or more and less than 90%); Herbicidal effect on H (barnyard grass), foliage application (barnyard grass [6]; [8]): 4 (Herbicidal rate of 70% or more and less than 90%)
CCCC(=O)Oc1c(C)nn(C)c(=O)c1-c1c(-c2ccc(OC)cc2)oc2ccc(C)cc12 [9-008]	5 (Herbicidal rate of 90% or more (almost completely withered))	5 (Herbicidal rate of 90% or more (almost completely withered))	1 (Herbicidal rate of 5% or more and less than 20%)	5 (Herbicidal rate of 90% or more (almost completely withered))												3 (Herbicidal rate of 40% or more and less than 70%)	3 (Herbicidal rate of 40% or more and less than 70%)	3 (Herbicidal rate of 40% or more and less than 70%)	4 (Herbicidal rate of 70% or more and less than 90%)	0 (Herbicidal rate of 5% or less (almost no effect))	herbicidal effect on green foxtail (G) (green foxtail; [7]): 3 (Herbicidal rate of 40% or more and less than 70%); herbicidal effect on windgrass (L) (windgrass): 0 (Herbicidal rate of 5% or less (almost no effect)); H: barnyard grass, herbicidal effect grade (barnyard grass [4]): 3 (Herbicidal rate of 40% or more and less than 70%); herbicidal effect on persian speedwell (R) (persian speedwell; [7]): 5 (Herbicidal rate of 90% or more (almost completely withered)); P: chickweed, herbicidal effect grade (chickweed): 0 (Herbicidal rate of 5% or less (almost no effect)); Herbicidal effect on H (barnyard grass), foliage application (barnyard grass [6]; [8]): 2 (Herbicidal rate of 20% or more and less than 40%)
